Assay results published in publication PMC9118553, “In Vivo Bioconcentration of 10 Anionic Surfactants in Rainbow Trout Explained by In Vitro Data on Partitioning and S9 Clearance” (Environmental Science & Technology, 2022).

Experiments:
[1] = ref REACH dossier; cited from earlier work
carp = system: carp; design: method as in REACH dossier; settings: carp 28d pH7; ref REACH dossier; cited from earlier work
[2] = marked * = measured; used for IVIVE; same values as Table 3; cited from earlier work
[3] = RT-S9 substrate depletion assay, mixture of 9 anionic surfactants (AnionMixture); settings: tested in a mixture
Protocol: (§1) An established RT-S9 substrate depletion assay was employed,[25]−[27] predating the currently available OECD guideline 319B.[28] A single batch of the characterized liver homogenate material was prepared at the US EPA lab in Duluth and shipped on dry ice to the testing facilities at the University of Amsterdam. The test was conducted using the same method applied for a series of cationic surfactants in Droge et al.[29] and is summarized together with the in vitro–in vivo extrapolation in Text S4.
(§2) Text S4: Trout liver S9 parent depletion assay details and IVIVE
(§3) Liver tissue was separately pooled from the same five rainbow trout (three males/two females, ~300 g, liver weight ~3 g) used also for the RT-S9 study on a series of cationic surfactants (Droge et al., 2021b). The liver sample was homogenized in an appropriate buffer and then centrifuged to yield a 13,000 x g supernatant (the ‘S9 fraction’, lacking only mitochondrial fractions). No further refinement towards microsomal fractions was made to remove cytosolic and lysosomal components.
(§4) Upon arrival at the University of Amsterdam the liver
(§5) S9 material was stored in a -80 °C freezer until use.
(§6) Individual chemicals were first dissolved in methanol and then further diluted to 20% methanol in 100 mM phosphate buffer to make a ~20 µM stock solution, which was then spiked as 10 µL in 190 µL of active S9 mixture. The active S9 mixture consisted of 100 mM potassium phosphate-buffered saline (PPBS) adjusted to pH 7.8, 2 mM β-NADPH, 2 mM UDPGA, 0.1 mM PAPS, 5 mM GSH, 10 μg/mL alamethicin (in methanol carrier; 0.1% v/v final concentration), and 2 mg/mL S9 protein. The substrate depletion assays were performed using the multiple vial method described in OECD TG 319B, employing two or three separately spiked series.
(§7) Reactions were performed at 11 °C in a temperature-controlled water bath (B. Braun Frigomix-R) that was placed on a 2 cm travel path shaker (Gerhardt LS 10) set at 45 rpm. As a positive […]
(§8) alkylsulfonates, no additional assays with inactivated RT-S9 were performed.
(§9) Reactions were quenched with 600 µL ice-cold acetonitrile. After 10 s vortexing and 5 min centrifugation (Hermle Z300, 2500 rpm), 100 µL clear supernatant was transferred into 300 µL glass inserts placed in new autosampler vials, and mixed with 100 µL pure water. Concentrations were measured using a Prominence UFLC-XR system (Shimadzu) coupled to a tandem mass spectrometer (QTRAP 4000, Applied Biosystems) with a Turbo Ion spray source operated at 400 ◦C. For chromatographic separations, a 100 x 2.1mm x 2.7 µm Supelco Ascentis Express column was used (40 °C), with eluent A: pure water with 2 mM ammonium acetate, and eluent […]
(§10) prepared in 50% acetonitrile/water, calibration curves used covered at least four points in a log-linear range. The lowest external standard to fit the log-linear calibration curve served as limit of quantification, requiring a peak of at least 10x the average noise.
(§11) Each vial was treated as an independent vial with recorded exposure time. Log-transformed concentration data of the parent compound were plotted against exposure time (min) and analysed using Graphpad PRISM 8. […]
(§12) the slope (min-1) was multiplied by -2.3 and by 60 (min h-1) to obtain a first order depletion rate […]
(§13) Extrapolation of kdep to whole body rate biotransformation rate constant (kB-S9) The basic approach to extrapolate first order depletion rate constants (k dep) to whole body

[4] = RT-S9 substrate depletion assay, individual compounds, with IVIVE; settings: tested individually
Protocol: as §1, with “The in vitro intrinsic clearance by the S9 fraction of rainbow trout liver was measured for the same 11 anionic surfactants used in the BCF experiment as separate compounds. […] An” for “An”
as §2, §3, §4, §5, §6, §7, §8, §9, §10, §11, §12, §13

[5] = design: method as in REACH dossier; settings: method as noted in the cell (shake flask, solubility ratio, HPLC, BCFBAF, pH); ref REACH dossier; cited from earlier work
Cyprinus carpio = settings: in vivo; cited from earlier work
several species = system: several species; design: method as in doi:10.1186/s12302-020-00435-1; settings: LSC of radiolabeled compound, upper boundary; cited from earlier work
[6] = design: method as in REACH dossier; settings: experimental, several studies; ref REACH dossier; cited from earlier work
Danio rerio = settings: in vivo, pH 7.6; cited from earlier work
rainbow trout = settings: rainbow trout, similar water hardness; cited from earlier work

SMILES | Degradation information ~28d-sludge test (% degradable) [1] | LogKow [5] | further results
CC(CC(=O)O)CC(C)(C)C (stereo not shown) [3,5,5-trimethylhexanoic acid] | 96% |  | BCF (carp): 1 to 7 L/kg
CCCCCCC(O)CCCCCCCCCCC(=O)[O-].CCCCCCCCCCCCCCCCCC(=O)[O-].[Li+].[Li+] (stereo not shown) [dilithium(1+) ion 12-hydroxyoctadecanoate octadecanoate] | 74-97% |  | 
CCCCC(CC)COP(=O)(O)OCC(CC)CCCC (stereo not shown) [BEHP, bis(2-ethylhexyl)phosphate] |  |  | log DMW, membrane-water distribution ratio [2]: 3.81; Slope of depletion curve (log concentration vs time) [3]: -0.0003 min-1; CLint,S9 [4]: n.s.; Slope of depletion curve (log concentration vs time) ([4]; 2 mg/mL S9 protein, 11 °C): -0.0001 min-1
CC(C)CP(=S)([S-])CC(C)C.[Na+] [sodium diisobutylphosphinodithioate] | 78,8% | -1.64 | 
CCCCCCCCP(=O)(O)O [octylphosphonic acid] | 65-88% | 2.7 | 
CCCCC(CC)COC(=O)CC(C(=O)OCC(CC)CCCC)S(=O)(=O)[O-].[K+] (stereo not shown) [potassium 1,4-bis[(2-ethylhexyl)oxy]-1,4-dioxobutane-2-sulfonate] | 83.5-100% | 2.0 | 
CCCCCCCCCCCCCCOS(=O)(=O)O [C14SO4] |  |  | BCF (Cyprinus carpio): 11 L kg^–1
CCCCCCCCCCCCOP(=O)([O-])O.[K+] [potassium dodecyl hydrogen phosphate] | 4-63% | 2.74 | 
CCCCCCCCC(=O)O [nonanoic acid] | 68 -75% | 3.42 | 
CCCCCCCCCCCCOS(=O)(=O)[O-].[Na+] [C12SO4, sodium dodecylsulfate] | 94-97% |  | BCF (several species): 1–7.15 L kg^–1; BCF [6]: 1-10
CCCCCCCC(C=O)NCCCCCC(=O)O (stereo not shown) [6-[(1-formyloctyl)amino]hexanoic acid] | 98% | 2.47 | 
CCCCCCCCCCCCCCCCCCOP(=O)([O-])[O-].[K+].[K+] [1-Octadecanol, phosphate, potassium salt] | 0% | 8.556 | 
CCCCC(CC)COP(=O)(O)O (stereo not shown) [[(2-ethylhexyl)oxy]phosphonic acid] | 26-78% | < 3 | 
CCCCCCCCCCCC(=O)O [C11CO2] |  |  | BCF (Danio rerio): 255 L/kg; Exp BCF (Danio rerio): 255
CCCCCCCCCC(C)c1ccc(S(=O)(=O)O)cc1 (stereo not shown) [C11-2-LAS, reference compound] |  |  | BCF (rainbow trout): 6 L kg^–1
CCCCCCC(O)CCCCCCCCCCC(=O)[O-].[Li+] (stereo not shown) [lithium(1+) ion 12-hydroxyoctadecanoate] | 74-97% |  | 
